Among the test systems are SK-MEL-28 melanoma; IGROV1 ovarian; A498 renal; HOP-92 NSCLC; CAKI-1 renal; OVCAR-3 ovarian; SW-620 colon; HCC-2998 colon; DU-145 prostate.
Common to all, as to experiment: growth of human tumour cells (NCI), 48 h

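Exposure lasted 48 hours, with cells grown in 96-well plates and compounds tested at five concentrations. GI50 is the concentration that inhibits growth by half. TGI: total growth inhibition.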

As to `COC(OC)[C@@H](C)[C@H](O)[C@](C)(O)C1OC(C)(C)OC(C(C)C=C(C)C)C1C` (stereo partly specified), the TGI in the experiment on SK-MEL-28 melanoma, in the experiment with IGROV1 ovarian, in the experiment with A498 renal, in the experiment with HOP-92 NSCLC, in the experiment with CAKI-1 renal and in the experiment with OVCAR-3 ovarian was greater than 100 µM each time. Moreover, the TGI with SW-620 colon is greater than 100 µM.
With `c1ccc(COCC2OC3c4ccccc4COC3C2OCc2ccccc2)cc1` (stereo unspecified), the TGI in the experiment with SK-MEL-28 melanoma is greater than 100 µM; in the experiment on IGROV1 ovarian, greater than 100 µM; in the experiment on HCC-2998 colon, greater than 100 µM; with HOP-92 NSCLC it was 87.1 µM; in the experiment with CAKI-1 renal, greater than 100 µM; with OVCAR-3 ovarian, greater than 100 µM. In the experiment on SW-620 colon, this molecule returned a TGI greater than 100 µM.
With `COC12CC(=O)C(C(C)=O)=C(O)C1(C)c1c(OC(C)=O)c(C)c(O)c(C(C)=O)c1O2` (stereo unspecified), the TGI with SK-MEL-28 melanoma is greater than 100 µM; in the experiment with IGROV1 ovarian, greater than 100 µM; with A498 renal it was 78.1 µM; in the experiment on HCC-2998 colon, 84 µM; with HOP-92 NSCLC it was 52 µM; in the experiment on CAKI-1 renal it was 54.1 µM. Besides, the values for the TGI with OVCAR-3 ovarian and in the experiment with SW-620 colon were 69.9 µM and greater than 100 µM, respectively.
As to `CCCCCCCCCCCCN(O)C(=O)c1ccccc1`, the TGI was greater than 100 µM in the experiment with SK-MEL-28 melanoma; greater than 100 µM in the experiment with IGROV1 ovarian; 88.3 µM in the experiment on A498 renal; greater than 100 µM in the experiment on HCC-2998 colon; 71.8 µM in the experiment on HOP-92 NSCLC; greater than 100 µM with OVCAR-3 ovarian. The molecule further yielded a TGI in the experiment with SW-620 colon greater than 100 µM.
Turning to `COc1ccc(/C(=N/NC(N)=O)C(c2ccc(OC)cc2)C2C(=O)Oc3ccccc32)cc1` (stereo unspecified), the TGI with SK-MEL-28 melanoma, in the experiment with IGROV1 ovarian, in the experiment on HCC-2998 colon, in the experiment on HOP-92 NSCLC, with CAKI-1 renal and in the experiment with OVCAR-3 ovarian was greater than 100 µM in each case. The molecule also had a TGI with SW-620 colon greater than 100 µM.
For the molecule `CC(=O)OCC1O[C@@H]([S-])C(OC(C)=O)[C@H](OC(C)=O)[C@@H]1OC(C)=O.[Au+].c1ccc(CN2[CH-]N(Cc3ccccc3)C(c3ccccc3)=C2c2ccccc2)cc1`, the GI50 in the experiment with SK-MEL-28 melanoma is 1.64 µM; with A498 renal, 2.06 µM; in the experiment with HCC-2998 colon, 1.96 µM; in the experiment with HOP-92 NSCLC, 1.74 µM; in the experiment on CAKI-1 renal it was 2 µM; in the experiment with OVCAR-3 ovarian it was 1.61 µM. Also, the GI50 in the experiment with DU-145 prostate was 1.89 µM. Moreover, the TGI with SK-MEL-28 melanoma was found to be 3.21 µM; in the experiment on A498 renal, 4.02 µM; with HCC-2998 colon it was 3.66 µM; with HOP-92 NSCLC it was 3.38 µM; in the experiment with CAKI-1 renal, 3.95 µM; in the experiment with OVCAR-3 ovarian, 2.99 µM. This molecule yielded a TGI in the experiment on DU-145 prostate of 3.54 µM.
For the molecule `CCOC(=O)NC(=O)c1cn(CCN2CCN(C(=O)CCCCCCCCCCNc3ncnc4nc[nH]c34)CC2)c(=O)[nH]c1=O`, the TGI in the experiment with SK-MEL-28 melanoma, with IGROV1 ovarian, in the experiment with HCC-2998 colon, in the experiment with HOP-92 NSCLC, in the experiment on CAKI-1 renal and with OVCAR-3 ovarian was greater than 100 µM throughout. In the experiment with SW-620 colon, the TGI is greater than 100 µM.
Consider `CNCCCNc1nc2ccccc2c2c(=O)c3cc(Cl)ccc3sc12`, for which the GI50 in the experiment on SK-MEL-28 melanoma was 1.82 µM; in the experiment on IGROV1 ovarian, 1.51 µM; in the experiment with A498 renal it was 2.55 µM; with HCC-2998 colon it was 1.69 µM; in the experiment on HOP-92 NSCLC, 0.935 µM; in the experiment with CAKI-1 renal, 1.4 µM. Besides, the values for the GI50 in the experiment with OVCAR-3 ovarian, in the experiment with SW-620 colon and in the experiment with DU-145 prostate were 1.61 µM, 1.62 µM and 1.74 µM, respectively. The TGI with SK-MEL-28 melanoma is 3.34 µM; in the experiment on IGROV1 ovarian, 3.18 µM; with A498 renal it was 7.41 µM; in the experiment on HCC-2998 colon, 3.34 µM; with HOP-92 NSCLC, 2.81 µM; with CAKI-1 renal it was 2.7 µM. Besides, the values for the TGI with OVCAR-3 ovarian, in the experiment with SW-620 colon and in the experiment on DU-145 prostate were 3.08 µM, 3.09 µM and 3.14 µM, respectively.
Turning to `COc1cc(-c2cc(=O)c3cc(C)c(C)c(C(=O)O)c3o2)cc(OC)c1OC`, the TGI with SK-MEL-28 melanoma, in the experiment with IGROV1 ovarian, in the experiment with A498 renal, in the experiment on HCC-2998 colon, in the experiment on HOP-92 NSCLC and with OVCAR-3 ovarian was greater than 100 µM throughout. In addition, the TGI in the experiment on SW-620 colon is greater than 100 µM.
For `Cn1c2c(c3ccccc31)CCN(CCCCN1CCN(c3cccc(Cl)c3)CC1)C2=O`, the TGI with SK-MEL-28 melanoma is 20.1 µM; with IGROV1 ovarian it was 47 µM; with A498 renal it was 27.7 µM; in the experiment on HOP-92 NSCLC it was 34.7 µM; in the experiment on CAKI-1 renal it was greater than 100 µM; with OVCAR-3 ovarian it was 34 µM. In the experiment with SW-620 colon, this molecule showed a TGI of 26.4 µM.
Take `O=C(CC(=O)C1CCOC1=O)C(=O)Nc1ccc(Cl)cc1Cl` (stereo unspecified): the TGI in the experiment with SK-MEL-28 melanoma, in the experiment with IGROV1 ovarian, in the experiment with A498 renal, in the experiment with HCC-2998 colon, in the experiment with HOP-92 NSCLC and in the experiment with CAKI-1 renal was greater than 100 µM each time. In addition, the TGI in the experiment with OVCAR-3 ovarian and in the experiment on SW-620 colon was greater than 100 µM throughout.
`CC1=C(c2cc(C(=O)Nc3cccc(C(F)(F)F)c3)ncn2)Sc2ccccc2N1`: the TGI with SK-MEL-28 melanoma, with IGROV1 ovarian, in the experiment with A498 renal, in the experiment on HOP-92 NSCLC, in the experiment on CAKI-1 renal and in the experiment with OVCAR-3 ovarian was greater than 100 µM throughout. For the same molecule, the TGI in the experiment on SW-620 colon was greater than 100 µM.
For the molecule `COc1ccc(CNc2nc3c(NC(C)=O)cc(C(F)(F)F)cc3nc2-c2ccccc2)cc1OC`, the TGI in the experiment with SK-MEL-28 melanoma, with IGROV1 ovarian, in the experiment with A498 renal, in the experiment on HCC-2998 colon, with CAKI-1 renal and in the experiment on OVCAR-3 ovarian was greater than 100 µM throughout. The molecule also returned a TGI in the experiment with SW-620 colon greater than 100 µM.
In the case of `CN(C)c1n/c(=N/c2ncn[nH]2)ss1`, the TGI with SK-MEL-28 melanoma, in the experiment with IGROV1 ovarian, with A498 renal, in the experiment with HCC-2998 colon, with HOP-92 NSCLC and in the experiment on CAKI-1 renal was greater than 100 µM in each case. In the experiment with SW-620 colon, this molecule displayed a TGI greater than 100 µM.
In the case of `O=C(NO)C(=O)Nc1ccc(Cl)cc1[N+](=O)[O-]`, the TGI in the experiment on SK-MEL-28 melanoma, in the experiment on IGROV1 ovarian, with A498 renal, with HCC-2998 colon, with HOP-92 NSCLC and with CAKI-1 renal was greater than 100 µM in each case. For the same molecule, the TGI with OVCAR-3 ovarian and in the experiment with SW-620 colon was greater than 100 µM in each case.
